Data: patent US8435564B2, “Pharmaceutical compositions comprising brivaracetam” (UCB Pharma, S.A., priority 2008, dated 2013)
≈ marks a conversion by molar mass, not a printed value.

Experiments:
[1] = water solubility of the active ingredient; format: physicochemical
Protocol: Brivaracetam is a very water soluble active ingredient (ca. 700 mg/ml), and it is not obvious to slow down the release of the drug.

[2] = BCS classification; format: physicochemical
Protocol: Considering Brivaracetam is classified as BCS I, the resulting in vitro dissolution (USP <711> apparatus no 2) in a buffered aqueous media has to show a drug release of no more than 40% after 1 hour of dissolution, of 35%-80% after 4 hours of dissolution and of no less than 80% after 16 hours of dissolution. Preferably, a profile of no more than 35% after 1 hour of dissolution, of 40%-75% after 4 hours of dissolution and of no less than 80% after 16 hours of dissolution. More preferably a profile of no more than 30% after 1 hour of dissolution, of 45%-70% after 4 hours of dissolution and of no less than 80% after 16 hours of dissolution.

In the case of CCC[C@@H]1CC(=O)N([C@@H](CC)C(N)=O)C1 [Brivaracetam, (2S)-2-[(4R)-2-oxo-4-propyl-pyrrolidin-1-yl]butanamide], the solubility [1] is reported as roughly 700 mg/mL (≈ 3300 mM) and the BCS class [2] is reported as “BCS I”.
